From US7601709 come the findings set out here.

Read-outs that look alike come from different tables or passages of the source.

The conditions of the data set: rcm bond, 40.0 °C.

With `CCOC(=O)[C@@]12C[C@H]1C=CCCCCC[C@H](NC(=O)OC(C)(C)C)C(=O)N1C[C@H](c3nnn(Cc4ccc(-c5ccccc5)cc4)n3)C[C@H]1C(=O)N2`, the ring closure, yield of all isomers (from C=CCCCCC[C@H](NC(=O)OC(C)(C)C)C(=O)N1C[C@H](c2nnn(Cc3ccc(-c4ccccc4)cc3)n2)C[C@H]1C(=O)N[C@]1(C(=O)OCC)C[C@H]1C=C, Hoveyda's catalyst, CH2Cl2, 10.0 mM, 16.0 h) came out at 91.3%.
Consider `CCOC(=O)[C@@]12C[C@H]1C=CCCCCC[C@H](NC(=O)OC(C)(C)C)C(=O)N1C[C@@H](O)C[C@H]1C(=O)N2`, for which the ring closure, yield of all isomers (from C=CCCCCC[C@H](NC(=O)OC(C)(C)C)C(=O)N1C[C@@H](O)C[C@H]1C(=O)N[C@]1(C(=O)OCC)C[C@H]1C=C, Hoveyda 1st generation catalyst, DCM, 14.45 mM, 12.0 h) worked out at 87%.
In turn, `CCOC(=O)[C@@]12C[C@H]1C=CCCCCC[C@H](NC(=O)OC(C)(C)C)C(=O)N1C[C@H](n3nnc(-c4ccccc4)n3)C[C@H]1C(=O)N2` gave a ring closure, yield of all isomers (from C=CCCCCC[C@H](NC(=O)OC(C)(C)C)C(=O)N1C[C@H](n2nnc(-c3ccccc3)n2)C[C@H]1C(=O)N[C@]1(C(=O)OCC)C[C@H]1C=C, Hoveyda catalyst, DCM, 2.18 mM, 20.0 h) of 85.5%.
